The values below are quoted from earlier work in patent publication US20070043030A1, “Pharmaceutical compositions for treating premature ejaculation by pulmonary inhalation” (Vectura Limited, priority 2003, published 2007).

One data set concerns ejaculation. Conditions: oral administration.
For data set [1], the system named is male patients with primary PE. As to conditions: oral, 3 to 5 hours before planned intercourse, 4-week treatment period.
In another data set the test system is rapid ejaculation. Conditions: daily oral doses of 25-50 mg.
For data set [2] the following is noted: oral formulation used for antidepressive indications.

`CN[C@H]1CC[C@@H](c2ccc(Cl)c(Cl)c2)c2ccccc21` [sertraline]: in the data set with ejaculation, the delay in ejaculation entry is recorded as “effective in producing a delay in ejaculation”. The “efficacy in primary PE” value in data set [1] is reported as “comparable efficacy”.
In the case of `CNCCCN1c2ccccc2CCc2ccc(Cl)cc21` [desmethylclomipramine], where the note is “oral dose (clomipramine: single oral dose)”, the plasma half-life result is recorded as “around 36 hours”.
`CNCCC(Oc1ccc(C(F)(F)F)cc1)c1ccccc1` (centres unmarked) [fluoxetine]: the delay in ejaculation result in the data set with ejaculation is reported as “effective in producing a delay in ejaculation”.
`CN(C)CCCN1c2ccccc2CCc2ccc(Cl)cc21` [clomipramine, 3-chloro-5-[3-(dimethylamino)-propyl]-10,11-dihydro-5H-dibenz[b,f]azepine]: the “efficacy in primary PE” value in data set [1] is on record as “comparable efficacy”. The “effect on ejaculatory latency” value with rapid ejaculation is listed as “effective in significantly lengthening ejaculatory latencies”. In addition, in data set [2], the “frequency of frequently reported side effects (dry mouth, sweating, constipation, blurred vision, nausea, drowsiness, headache, dizziness)” value was more than 10%. Besides, where the note is “oral administration”, the “time of peak plasma levels after dosage” value was “two”.
For `Fc1ccc([C@@H]2CCNC[C@H]2COc2ccc3c(c2)OCO3)cc1` [paroxetine], the delay in ejaculation result with ejaculation is on record as “effective in producing a delay in ejaculation”. In data set [1], the “efficacy in primary PE” value is “comparable efficacy”.
`CCCc1nn(C)c2c(=O)[nH]c(-c3cc(S(=O)(=O)N4CCN(C)CC4)ccc3OCC)nc12` [sildenafil]: the “efficacy in primary PE” value in data set [1] was “optimal efficacy”.
